Assay results published in patent US7186534B1 (The Trustees of Columbia University in the City of New York, priority 1997, dated 2007).
Entries after “also recorded” stand apart in the source; their conditions may differ.

Assays:
Type in all cases: biochemical
human 9cRDH (h9cRDH) [1] = target: T1, human 9cRDH (h9cRDH) (Homo sapiens, UniProt Q92781); assay: Retinaldehyde isomer reduction by recombinant human 9cRDH; conditions: for h9cRDH specific activity, retinaldehyde reduction: substrate 10 μM, 15 min, 150–180 μg protein/assay, NADH, pH 5.0
T1 sequence (Q92781 1-318): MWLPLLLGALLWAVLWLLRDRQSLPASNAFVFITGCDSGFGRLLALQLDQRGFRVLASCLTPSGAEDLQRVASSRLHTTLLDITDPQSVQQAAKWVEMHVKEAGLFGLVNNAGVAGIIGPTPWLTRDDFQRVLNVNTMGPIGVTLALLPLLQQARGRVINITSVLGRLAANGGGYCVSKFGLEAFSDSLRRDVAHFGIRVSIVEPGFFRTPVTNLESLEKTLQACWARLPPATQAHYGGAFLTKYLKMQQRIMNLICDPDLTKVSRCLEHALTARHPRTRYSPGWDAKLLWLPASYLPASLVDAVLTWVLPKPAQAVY
Experimental: (§1) Enzymatic Assays. Assays for human and mouse 9cRDH were carried out essentially as were described previously for human 9cRDH (19). For expression of mouse 9cRDH a cDNA clone obtained from a mouse liver cDNA library was employed (see below). Recombinant human or mouse 9cRDH expressed in CHO cells was incubated in an assay mixture containing 10 μM 9-cis-retinol (added in 0.02 mL ethanol) and 2 mM NAD in 10 mM Hepes, pH 8.0, containing 150 mM KCl, 1 mM EDTA, and 50 μg phosphotidyl choline for 15 min at 37° C. (final assay volume of 0.6 ml) with agitation. This assay mixture was used routinely to measure oxidation of 9-cis-retinol to 9-cis-retinaldehyde and in studies assessing oxidation of 11-cis-, 13-cis- and all-trans-retinol to their corresponding aldehydes. For some experiments, the ability of human or mouse 9cRDH to catalyze the reduction of 9-cis-, 11-cis-, 13-cis- or all-trans-retinaldehyde was assessed. To assess these reduction reactions, incubations were carried out in 100 mM sodium acetate, pH 5.0, containing 50 μg phosphotidyl choline and 2 mM NADH (or 2 mM NADPH) in a final volume of 0.6 ml for 15 min at 37° C.
(§2) Immediately following incubation of the assay, the assay mixture was denatured with an equal volume of absolute ethanol (0.6 ml), and the retinoids extracted into 2.5 ml of hexane. Following one backwash of the hexane extract with 0.5 ml of deionized water, the hexane was evaporated to dryness under a gentle stream of N2. The extracted retinoids were immediately redissolved in 120 μl of hexane and analyzed by normal phase HPLC as described below.

mouse 9cRDH (m9cRDH) [2] = target: T2, mouse 9cRDH (m9cRDH) (Mus musculus, UniProt O55240); assay: Retinaldehyde isomer reduction by recombinant mouse 9cRDH; conditions: for m9cRDH specific activity, retinaldehyde reduction: substrate 10 μM, 15 min, 150–180 μg protein/assay, NADH, pH 5.0
T2 sequence (O55240 1-318): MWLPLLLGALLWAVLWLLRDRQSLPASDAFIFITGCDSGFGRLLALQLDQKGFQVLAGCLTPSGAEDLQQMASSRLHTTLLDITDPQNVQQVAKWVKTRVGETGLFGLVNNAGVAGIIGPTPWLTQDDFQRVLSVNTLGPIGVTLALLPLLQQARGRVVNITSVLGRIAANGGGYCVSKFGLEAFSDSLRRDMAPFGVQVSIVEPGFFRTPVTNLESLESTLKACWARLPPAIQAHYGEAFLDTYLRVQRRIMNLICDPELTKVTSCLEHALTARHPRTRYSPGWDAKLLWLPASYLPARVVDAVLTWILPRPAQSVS
Experimental: as §1, §2

[3] = target: T3, human 9-cis retinol dehydrogenase (9cRDH) (Homo sapiens, UniProt Q92781); assay: Inhibition of recombinant human 9cRDH activity (9-cis-retinol oxidation, CHO cell homogenate, HPLC); conditions: for inhibition of human 9cRDH activity by hydroxysteroids: 10 μM steroid, equimolar to substrate, forward (retinol oxidation) or reverse (retinaldehyde reduction) direction; for inhibition of human 9cRDH activity (in words): 10 μM 9-cis-retinol
T3 sequence (Q92781 1-318): T1 sequence (Q92781 1-318)

mouse 9cRDH [4] = target: T4, mouse 9cRDH (Mus musculus, UniProt O55240); assay: Inhibition of recombinant mouse 9cRDH activity (9-cis-retinol oxidation, CHO cell homogenate, HPLC); conditions: for inhibition of mouse 9cRDH activity by hydroxysteroids: 10 μM steroid, equimolar to substrate, forward (retinol oxidation) or reverse (retinaldehyde reduction) direction
T4 sequence (O55240 1-318): T2 sequence (O55240 1-318)

human 9cRDH = target: T5, human 9cRDH (Homo sapiens, UniProt Q92781); assay: Hydroxysteroid oxidation/reduction by human 9cRDH (TLC); conditions: 37° C., 1.5 h; TLC detection limit approximately 3 pmol/min/mg protein
T5 sequence (Q92781 1-318): T1 sequence (Q92781 1-318)
Experimental: (§3) To investigate whether human or mouse 9cRDH will catalyze oxidations or reductions of 3α-hydroxy-, 11β-hydroxy- or 17β-hydroxysteroids, these steroids were incubated at 37° C. for 1.5 h in the assay media described above for assessing oxidation/reduction of 9-cis-retinol/9-cis-retinaldehyde. The Hepes NAD^+-containing assay buffer described above was employed to assess hydroxysteroid oxidation and to assess hydroxysteroid reduction the acetate buffer containing NADH (or NADPH) assay buffer (see above) was employed. Immediately following incubation, the steroids were extracted as described above for retinoids. The final hexane extract was evaporated to near dryness and this was spotted onto a silica high performance TLC plate (Whatman Inc., Clifton, N.J.) and developed in hexane/diethyl ether/acetic acid (70:30:1, v/v) or ethyl acetate/chloroform (25:75, v/v). Steroids were visualized by charring after treatment of the TLC plates with an areosol of 10% (v/v) H2SO4 in methanol.
(§4) Biswas and Russell (32) have reported that rat liver all-trans-retinol dehydrogenase type I also uses several 3α-hydroxy- and 17β-hydroxysteroids as substrates. Chai et al. (18) also reported that hydroxysteroids are substrates for mouse liver cis-retinol dehydrogenase. Since human 9cRDH is approximately 50% identical to the rat liver enzymes and shares approximately 63% homology to mouse liver cis-retinol dehydrogenase, next investigated was whether these steroids might also be substrates for 9cRDH. To test this possibility it was determined whether human or mouse 9cRDH would catalyze oxidation of 5α-androstan-3α, 17β-diol, androsterone, testosterone or dihydrotestosterone to corresponding ketone products. Also investigated was whether human and/or mouse 9cRDH could catalyze reduction of the corresponding ketones. […] It is estimate, based on the lower limits for hydroxysteroid detection by TLC, that it would be possible to detect rates of hydroxysteroid oxidation as low as approximately 3 pmol/min/mg protein. This rate of hydroxysteroid oxidation is at least 2-orders of magnitude lower than Vmax values reported by Biswas and Russell (32) and Chai et al. (18) for oxidation of hydroxysteroids in their studies of enzymes that are able to oxidize both retinol and hydroxysteroids.

mouse 9cRDH [5] = target: T4, mouse 9cRDH; assay: Hydroxysteroid oxidation/reduction by mouse 9cRDH (TLC); conditions: 37° C., 1.5 h; TLC detection limit approximately 3 pmol/min/mg protein
Experimental: as §3, §4

human 9cRDH (h9cRDH) [6] = target: T1, human 9cRDH (h9cRDH); assay: Retinol isomer oxidation by recombinant human 9cRDH (substrate and cofactor specificity)
Experimental: Enzymatic Assay of Retinol Dehydrogenase Activity. Transfected CHO cell pellets were homogenized in PBS at 4° C. using 50 strokes of a Dounce homogenizer For assay of retinol dehydrogenase activity, aliquots of unfractionated CHO cell homogenate were incubated with 10, μM retinol (either as the all-trans, 13-cis, or 9-cis isomer added in ethanol) and either 2 mM NAD+ or 2 mM NADP+ in 10 mM Hepes containing 150 mM KCl, 1 mM EDTA, and 10, μg/ml phosphotidyl choline at pH 8.0 and 37° C. for prechosen time intervals. The final assay volume was 0.6 ml. Assays were routinely carried out in amber glass tubes that had been flushed with N2 to shield the retinoids from both light and O2 All subsequent extractions and procedures were carried out in a manner that minimized exposure of the retinoids to light and O2.
Immediately following incubation, the assay mixture was denatured with an equal volume of absolute ethanol (0.6 ml), and the retinoids were extracted into 3 ml of HPLC grade hexane. Following one backwash of the hexane extract with 0.5 ml of deionized water, the hexane was evaporated to dryness under a gentle stream of N2, and the extracted retinoids were immediately redissolved in 120 μl of hexane and analyzed by normal phase HPLC (see below).
HPLC Procedures. Stereoisomers of both retinol and retinaldehyde were separated on a 4.6×250-mm Vydac 101HS54 silica column using hexane:n-propanol:1-octanol (98.9:1.0:0.1 v/v) flowing at 1.5 ml/min as the mobile phase. The running column was preceded by a silica guard column. Retinols and retinaldehydes were detected by UV absorbance at 350 nm. Retention times for all-trans-, 13-cis-, and 9-cis-retinols were established using purified compounds obtained as described above. Retention times for all-trans-, 13-cis-, and 9-cis-retinaldehyde were determined using commercial standards (Sigma). Quantities of each retinol and retinaldehyde isomer present in extracts were determined by comparisons of the integrated areas under the HPLC peaks with a standard curve constructed relating integrated peak area with known masses of each retinoid isomer. The concentrations of each retinoid isomer were determined by UV-visible spectrophotometry using published extinction coefficients for each retinol and retinaldehyde isomer (26).
as §1, §2

mouse 9cRDH (m9cRDH) [7] = target: T2, mouse 9cRDH (m9cRDH); assay: Retinol isomer oxidation by recombinant mouse 9cRDH; conditions: substrate 10 μM, 15 min, 150–180 μg protein/assay, NAD+
Experimental: as §1, §2

[8] = equimolar concentrations, any substrate

| Molecule | h9cRDH specific activity, retinaldehyde reduction (human 9cRDH (h9cRDH) [1]) [pmol/min/mg protein] | m9cRDH specific activity, retinaldehyde reduction (mouse 9cRDH (m9cRDH) [2]) [pmol/min/mg protein] | inhibition of human 9cRDH activity by hydroxysteroids [3] | inhibition of mouse 9cRDH activity by hydroxysteroids (mouse 9cRDH [4]) | catalysis by human 9cRDH of hydroxysteroid oxidation to ketone products (or reduction of the corresponding ketones) (human 9cRDH) | catalysis by mouse 9cRDH of hydroxysteroid oxidation to ketone products (or reduction of the corresponding ketones) (mouse 9cRDH [5]) | other results |
| --- | --- | --- | --- | --- | --- | --- | --- |
| NADPH | – | – | – | – | – | – | reaction rate supported relative to NADH, human 9cRDH retinaldehyde reduction (human 9cRDH (h9cRDH) [1]; [8]): ≤ 10%; reaction rate supported relative to NADH, mouse 9cRDH retinaldehyde reduction (mouse 9cRDH (m9cRDH) [2]; [8]): ≤ 10% |
| CC1=C(/C=C/C(C)=C\C=C\C(C)=C\C=O)C(C)(C)CCC1 [9-cis-retinaldehyde] | 268 | 420 | – | – | – | – | – |
| C[C@]12CC[C@H]3[C@@H](CCC4=CC(=O)CC[C@@]43C)[C@@H]1CC[C@@H]2O [testosterone] | – | – | none of these hydroxysteroids inhibited | none of these hydroxysteroids inhibited | Neither human nor mouse 9cRDH were found to catalyze | Neither human nor mouse 9cRDH were found to catalyze | – |
| C[C@]12CC[C@@H](O)C[C@@H]1CC[C@@H]1[C@@H]2CC[C@]2(C)[C@@H](O)CC[C@@H]12 [5α-androstane-3α, 17βdiol] | – | – | none of these hydroxysteroids inhibited | none of these hydroxysteroids inhibited | Neither human nor mouse 9cRDH were found to catalyze | Neither human nor mouse 9cRDH were found to catalyze | – |
| CC1=C(/C=C/C(C)=C/C=C/C(C)=C/CO)C(C)(C)CCC1 [all-trans Retinol, All-trans-retinol] | – | – | – | – | – | – | inhibition of human 9cRDH activity (in words) ([3]; listed as all-trans retinol): did not inhibit; inhibition of human 9cRDH activity (in words) ([3]; listed as all-trans-retinol): only very weak inhibitors; also recorded: did not inhibit; inhibition of mouse 9cRDH activity (in words) (mouse 9cRDH [4]; 10 μM 9-cis-retinol): only very weak inhibitors; oxidation to the corresponding retinaldehyde by transfected CHO cell homogenate (in words) (human 9cRDH (h9cRDH) [6]; 2 mM NAD+): unable to catalyze the oxidation; h9cRDH specific activity, retinol oxidation (human 9cRDH (h9cRDH) [6]; substrate 10 μM, 15 min, 150–180 μg protein/assay, NAD+): 0.5 pmol/min/mg protein; m9cRDH specific activity, retinol oxidation (mouse 9cRDH (m9cRDH) [7]): 0.6 pmol/min/mg protein |
| CC1=C(/C=C/C(C)=C/C=C\C(C)=C\C=O)C(C)(C)CCC1 [11-cis-retinaldehyde] | 1220 | 506 | – | – | – | – | – |
